# PubChem BioAssay (NCI)
# Several values for one entry are separate records, joined by “and”; a condition that tells them apart may be missing. Identical values can stand only once.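 Dose response: 5 concentrations. Exposure: 48 h. Format: 96-well plates. Endpoint: linear interpolation; highest concentration if not reached. The concentration for 50% growth inhibition is given as GI50. TGI marks complete inhibition of growth.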
# Tests used:
# Test in all cases: NCI anticancer screen, dose series, 48 h
# MDA-MB-435 = tested on: MDA-MB-435
# DU-145 prostate = tested on: DU-145 prostate
# SNB-75 CNS = tested on: SNB-75 CNS
# NCI/ADR-RES ovarian = tested on: NCI/ADR-RES ovarian
# NCI-H522 lung = tested on: NCI-H522 lung
# COLO 205 colon = tested on: COLO 205 colon
# HT29 colon = tested on: HT29 colon
# 786-0 renal = tested on: 786-0 renal
# PC-3 prostate = tested on: PC-3 prostate
# SK-MEL-28 melanoma = tested on: SK-MEL-28 melanoma
Compound,GI50 (MDA-MB-435),TGI (MDA-MB-435),GI50 (DU-145 prostate),TGI (DU-145 prostate),GI50 (SNB-75 CNS),TGI (SNB-75 CNS),GI50 (NCI/ADR-RES ovarian),TGI (NCI/ADR-RES ovarian),GI50 (NCI-H522 lung),TGI (NCI-H522 lung),GI50 (COLO 205 colon),TGI (COLO 205 colon),GI50 (HT29 colon),TGI (HT29 colon),GI50 (786-0 renal),TGI (786-0 renal),GI50 (PC-3 prostate),TGI (PC-3 prostate),GI50 (SK-MEL-28 melanoma),TGI (SK-MEL-28 melanoma)
COc1ccc2c(c1)N(CCO)C1=C(C(=O)OC1)C2c1cccc(Br)c1 (stereo not given),0.0225 µM,0.0623 µM,0.156 µM,1.15 µM,0.0647 µM,> 100 µM,0.0397 µM,0.223 µM,0.0226 µM,0.0693 µM,0.103 µM,0.464 µM,0.0429 µM,0.387 µM,0.12 µM,41.4 µM,0.0618 µM,54.4 µM,–,–
CCOCC[P+](c1ccccc1)(c1ccccc1)c1ccccc1,9.26 µM,51.9 µM,27.5 µM,> 100 µM,10.8 µM,53.4 µM,> 100 µM,> 100 µM,11.9 µM,50.9 µM,11.7 µM,26.5 µM,16.2 µM,96.3 µM,31.3 µM,> 100 µM,10.8 µM,72.9 µM,16 µM,70.6 µM
COC(=O)C12OCC34C(CC5C(C)=CC(=O)C(O)C5(C)C3C(O)C1O)OC(=O)C(OC(=O)CC(C)C)C24 (stereo not given),–,0.00697 µM,–,0.00425 µM,0.0825 µM and 0.05 µM,–,0.288 µM,–,–,0.00118 µM,0.425 µM and 0.05 µM,–,0.0588 µM,–,0.0223 µM,0.107 µM and 0.207 µM,–,0.0121 µM,< 0.0352 µM and 0.05 µM,–
O=C1CC23CC(=O)CC2(C1)c1ccccc1C3=O (stereo not given),–,–,–,–,–,> 100 µM,–,–,–,> 100 µM,–,> 100 µM,–,> 100 µM,–,> 100 µM,–,–,–,> 100 µM
COc1ccc(C2SC(C)C(=O)N2NC(=O)C(O)c2ccccc2)cc1 (stereo not given),> 100 µM,> 100 µM,> 100 µM,> 100 µM,60.3 µM,> 100 µM,> 100 µM,> 100 µM,> 100 µM,> 100 µM,> 100 µM,> 100 µM,> 100 µM,> 100 µM,> 100 µM,> 100 µM,> 100 µM,> 100 µM,> 100 µM,> 100 µM
Clc1cccc(Cc2cn3cc(-c4ccccc4)nc3s2)c1,3.48 µM,> 100 µM,17.7 µM,> 100 µM,21.2 µM,76.7 µM,3.49 µM,> 100 µM,–,–,–,–,11.8 µM,> 100 µM,26.7 µM,> 100 µM,14.4 µM,> 100 µM,61.5 µM,> 100 µM
COc1ccc(/C=C2\CCCC3=C2N=C2SC=NN2C3c2ccc(OC)c(OC)c2)cc1OC (stereo not given),3.51 µM,42.8 µM,23 µM,> 100 µM,9.38 µM,44.1 µM,18.2 µM,> 100 µM,17.9 µM,> 100 µM,7.58 µM,> 100 µM,19.9 µM,> 100 µM,25.3 µM,> 100 µM,37.8 µM,> 100 µM,19.3 µM,> 100 µM
O=C(O)C#Cc1ccc([N+](=O)[O-])cc1,–,> 100 µM,–,> 100 µM,–,–,–,> 100 µM,–,–,–,> 100 µM,–,> 100 µM,–,> 100 µM,–,> 100 µM,–,> 100 µM
O=CN/C=C/c1ccccc1O,–,–,–,> 100 µM,–,> 100 µM,–,–,–,> 100 µM,–,> 100 µM,–,> 100 µM,–,> 100 µM,–,–,–,> 100 µM
O=C(Nc1ccc(Cl)cc1Cl)/C(Cl)=C1/Sc2ccccc2NC1=O,–,–,–,–,–,85.9 µM,–,–,–,49 µM,–,> 100 µM,–,–,–,> 100 µM,–,–,–,75.7 µM
O=[N+]([O-])c1ccc(C2N3CCCCC3[C@@H]3c4[nH]c5ccccc5c4CCN23)cc1 (stereo not given in full),–,–,–,–,–,3.29 µM,–,–,–,–,–,38 µM,–,16 µM,–,> 100 µM,–,–,–,42 µM
N=C(N)c1ccc(-c2ccc(-c3ccco3)o2)cc1F,1.63 µM,3.25 µM,3.27 µM,11.5 µM,1.66 µM,7.23 µM,2.66 µM,10.9 µM,2.31 µM,6 µM,1.8 µM,3.62 µM,1.29 µM,3.3 µM,1.74 µM,4.08 µM,–,–,1.81 µM,3.67 µM
O=C(Cc1nc2ccccc2s1)NC12CC3CC(CC(C3)C1)C2,–,–,–,–,–,> 100 µM,–,–,–,> 100 µM,–,–,–,> 100 µM,–,> 100 µM,–,–,–,> 100 µM
O=c1[nH]c(C2CCCCC2)nc2cc(Cl)ccc12,–,–,–,–,–,> 100 µM,–,–,–,> 100 µM,–,> 100 µM,–,> 100 µM,–,> 100 µM,–,–,–,> 100 µM
COc1cc2c(/C=C3/C(=O)Nc4c3ccc3ccccc43)c(Cl)[nH]c2cc1C,0.00618 µM,0.0238 µM,0.165 µM,> 15.7 µM,–,–,0.0139 µM,1.09 µM,0.0123 µM,–,0.0715 µM,–,0.0246 µM,> 50 µM,0.0598 µM,> 24.2 µM,0.0152 µM,> 16.8 µM,17.3 µM,> 50 µM
COc1ccc(OC)c2c3c(ncc12)-c1cc2c(cc1C3)OCO2,> 100 µM,> 100 µM,48.4 µM,> 100 µM,> 100 µM,> 100 µM,> 100 µM,> 100 µM,52.3 µM,> 100 µM,> 100 µM,> 100 µM,–,–,22.5 µM,> 100 µM,> 100 µM,> 100 µM,> 100 µM,> 100 µM
C=C1CCC2C(C)(CO)C(O)CCC2(C)C1CC(O)C1=CCOC1=O (stereo not given),–,–,–,–,–,> 100 µM,–,–,–,20.3 µM,–,> 100 µM,–,> 100 µM,–,71.6 µM,–,–,–,> 100 µM
Cc1ccc(S(=O)(=O)NC(=O)Nc2nc(Cl)cc(Cl)n2)cc1,–,–,–,–,–,> 100 µM,–,–,–,23.9 µM,–,> 100 µM,–,–,–,> 100 µM,–,–,–,> 100 µM
